System: normal human epidermal keratinocytes (NHEK)
Assay: Affymetrix gene array analysis, autoantigen gene expression
Assay type: cell-based
Procedure: The gene array experiment was performed at the Core Facility of Genomics of the Medical College of Georgia, according to the instructions of the manufacturer (Affymetrix, Santa Clara, Calif.). Briefly, NHEK and OSC2 cells treated with 100 μM EGCG for different time period were extracted for total RNA, the RNA was processed for probes and hybridized with a cDNA microarray (HuG133A, Affymetrix) which represents 22,283 human series. DNA chips were read with a Hewlett-Packard GeneArray Scanner at a resolution of […] and were analyzed with the GeneSpring software (Silicon Genetics, Redwood City, Calif.). Details of this analysis will be published elsewhere (Hsu et al., manuscript in preparation).
Gene assays provide a valuable tool for studying the broad response of cells to agents, and we have used this approach to compare the differential effects of GTPP on gene expression in NHEK and human oral squamous carcinoma cells (Hsu, et al, manuscript in preparation). […] See also Hsu, S. et al. (2005) JPET 315:805-811, which is incorporated by reference in its entirety.

O=C(O[C@@H]1Cc2c(O)cc(O)cc2O[C@@H]1c1cc(O)c(O)c(O)c1)c1cc(O)c(O)c(O)c1 [EGCG, (−)-epigallocatechin-3-gallate]
genes either up- or down-regulated by at least 2-fold (100 uM EGCG, both cell types (NHEK, oral squamous carcinoma cells), 24 hrs post-treatment): approximately 2100 genes
60 kDa, SS-A/Ro (210438_x_at) expression, normalized (0.5 h, 100 μM): 0.71
60 kDa, SS-A/Ro (212852_s_at) expression, normalized (0.5 h, 100 μM): 0.60
Ku autoantigen, 80 kDa (208642_s_at) expression, normalized (0.5 h, 100 μM): 1.29
Ku autoantigen, 80 kDa (208643_s_at) expression, normalized (0.5 h, 100 μM): 2.34
Nuclear antigen SP100 (202863_at) expression, normalized (0.5 h, 100 μM): 1.72
Nuclear antigen SP100 (202864_s_at) expression, normalized (0.5 h, 100 μM): 3.12
Nuclear antigen SP10075 kDa (213226_at) expression, normalized (0.5 h, 100 μM): 3.99
RNA polymerase 1 (202692_s-at) expression, normalized (0.5 h, 100 μM): 0.50
SS-B/La (201138_s_at) expression, normalized (0.5 h, 100 μM): 0.84
SS-B/La (201139_s_at) expression, normalized (0.5 h, 100 μM): 0.71
centromere protein C1 (20473_at) expression, normalized (0.5 h, 100 μM): 1.27
coilin (203653_s_at) expression, normalized (0.5 h, 100 μM): 0.49
coilin (203654_s_at) expression, normalized (0.5 h, 100 μM): 1.11
fodrin-α (208611_s_at) expression, normalized (0.5 h, 100 μM): 0.41
fodrin-α (215235_s_at) expression, normalized (0.5 h, 100 μM): 0.49
golgin-67 (208797_s_at) expression, normalized (0.5 h, 100 μM): 1.26
golgin-67 (208798_x_at) expression, normalized (0.5 h, 100 μM): 0.81
golgin-67 (210425_x_at) expression, normalized (0.5 h, 100 μM): 0.50
golgin-67 (213650_at) expression, normalized (0.5 h, 100 μM): 0.24
scleroderma autoantigen 1, 75 kDa (213226_at) expression, normalized (0.5 h, 100 μM): 3.99
spectrin-β non-erythrocyctic 1 (212071_s_at) expression, normalized (0.5 h, 100 μM): 0.91
thyroid autoantigen 70 kDa (Ku antigen) (200792_at) expression, normalized (0.5 h, 100 μM): 1.15
ADPRT [poly(ADP)-ribose polymerase] expression (0.5 h, 100 μM, vs time zero): 3.547 fold
ANAP12 expression (0.5 h, 100 μM, vs time zero): 0.505 fold
ANXA11 expression (0.5 h, 100 μM, vs time zero): 1.043 fold
CALR expression (0.5 h, 100 μM, vs time zero): 0.71 fold
CBARA1 expression (0.5 h, 100 μM, vs time zero): 0.506 fold
CENPA expression (0.5 h, 100 μM, vs time zero): 7.677 fold
CENPB expression (0.5 h, 100 μM, vs time zero): 0.506 fold
CENPC1 expression (0.5 h, 100 μM, vs time zero): 1.269 fold
CHD4 expression (0.5 h, 100 μM, vs time zero): 0.766 fold
COL17A1 expression (0.5 h, 100 μM, vs time zero): 1.749 fold
CTDSP1 expression (0.5 h, 100 μM, vs time zero): 0.71 fold
CTDSP2 expression (0.5 h, 100 μM, vs time zero): 1.61 fold
CTDSPL expression (0.5 h, 100 μM, vs time zero): 2.83 fold
DLAT expression (0.5 h, 100 μM, vs time zero): 1.54 fold
EPPK1 expression (0.5 h, 100 μM, vs time zero): 0.793 fold
FBL expression (0.5 h, 100 μM, vs time zero): 1.64 fold
FLJ31657 expression (0.5 h, 100 μM, vs time zero): 0.833 fold
FLNB (Filamin B, β) expression (0.5 h, 100 μM, vs time zero): 1.379 fold
FLNB (Filamin B, γ) expression (0.5 h, 100 μM, vs time zero): 0.72 fold
G22P1 (Thyroid autoantigen, 70 kDa, Ku antigen) expression (0.5 h, 100 μM, vs time zero): 1.15 fold
GMEB2 expression (0.5 h, 100 μM, vs time zero): 0.584 fold
GOLGA1 expression (0.5 h, 100 μM, vs time zero): 0.398 fold
GOLGA2 expression (0.5 h, 100 μM, vs time zero): 0.332 fold
GOLGA3 expression (0.5 h, 100 μM, vs time zero): 0.533 fold
GOLGA4 expression (0.5 h, 100 μM, vs time zero): 0.822 fold
GOLGA5 expression (0.5 h, 100 μM, vs time zero): 1.566 fold
GOLGB1 expression (0.5 h, 100 μM, vs time zero): 0.969 fold
HARS expression (0.5 h, 100 μM, vs time zero): 1.27 fold
HARSL expression (0.5 h, 100 μM, vs time zero): 1.12 fold
HSA6591 expression (0.5 h, 100 μM, vs time zero): 0.456 fold
HUMAUANTIG expression (0.5 h, 100 μM, vs time zero): 0.948 fold
IMP-2 expression (0.5 h, 100 μM, vs time zero): 1.615 fold
LAD1 expression (0.5 h, 100 μM, vs time zero): 0.799 fold
LMO4 expression (repeat 1) (0.5 h, 100 μM, vs time zero): 0.272 fold
LMO4 expression (repeat 2) (0.5 h, 100 μM, vs time zero): 0.6 fold
MGC5560 expression (repeat 1) (0.5 h, 100 μM, vs time zero): 4.392 fold
MGC5560 expression (repeat 2) (0.5 h, 100 μM, vs time zero): 7.07 fold
NS (Nucleostemin) expression (0.5 h, 100 μM, vs time zero): 0.634 fold
PDHB expression (0.5 h, 100 μM, vs time zero): 1.079 fold
PDX1 expression (0.5 h, 100 μM, vs time zero): 1.103 fold
PMSCL1, 75 kDa expression (0.5 h, 100 μM, vs time zero): 3.993 fold
PMSCL2 expression (0.5 h, 100 μM, vs time zero): 0.959 fold
POLR1B expression (0.5 h, 100 μM, vs time zero): 0.67 fold
POLR1D expression (0.5 h, 100 μM, vs time zero): 0.90 fold
POLR2A expression (repeat 1) (0.5 h, 100 μM, vs time zero): 0.13 fold
POLR2A expression (repeat 2) (0.5 h, 100 μM, vs time zero): 1.03 fold
POLR2B expression (0.5 h, 100 μM, vs time zero): 1.83 fold
POLR2C expression (0.5 h, 100 μM, vs time zero): 1.32 fold
POLR2D expression (0.5 h, 100 μM, vs time zero): 1.14 fold
POLR2E expression (0.5 h, 100 μM, vs time zero): 0.45 fold
POLR2F expression (0.5 h, 100 μM, vs time zero): 0.90 fold
POLR2G expression (0.5 h, 100 μM, vs time zero): 1.09 fold
POLR2H expression (0.5 h, 100 μM, vs time zero): 0.88 fold
POLR3C expression (0.5 h, 100 μM, vs time zero): 0.90 fold
POLR3G expression (0.5 h, 100 μM, vs time zero): 1.55 fold
PSME3 expression (0.5 h, 100 μM, vs time zero): 2.554 fold
RALY expression (0.5 h, 100 μM, vs time zero): 1.556 fold
SART1 expression (0.5 h, 100 μM, vs time zero): 1.982 fold
SLC25A16 expression (0.5 h, 100 μM, vs time zero): 1.022 fold
SNRP70 expression (0.5 h, 100 μM, vs time zero): 3.59 fold
SNRPA expression (0.5 h, 100 μM, vs time zero): 1.29 fold
SNRPB2 expression (0.5 h, 100 μM, vs time zero): 0.49 fold
SNRPB expression (repeat 1) (0.5 h, 100 μM, vs time zero): 0.96 fold
SNRPB expression (repeat 2) (0.5 h, 100 μM, vs time zero): 0.62 fold
SNRPC expression (0.5 h, 100 μM, vs time zero): 1.28 fold
SNRPD1 expression (repeat 1) (0.5 h, 100 μM, vs time zero): 2.098 fold
SNRPD1 expression (repeat 2) (0.5 h, 100 μM, vs time zero): 0.755 fold
SOX13 expression (0.5 h, 100 μM, vs time zero): 1.304 fold
SP100 expression (repeat 1) (0.5 h, 100 μM, vs time zero): 1.72 fold
SP100 expression (repeat 2) (0.5 h, 100 μM, vs time zero): 3.123 fold
SP110 expression (repeat 1) (0.5 h, 100 μM, vs time zero): 5.725 fold
SP110 expression (repeat 2) (0.5 h, 100 μM, vs time zero): 4.176 fold
SP110 expression (repeat 3) (0.5 h, 100 μM, vs time zero): 1.149 fold
SPTAN1 (α-fodrin) expression (repeat 1) (0.5 h, 100 μM, vs time zero): 0.41 fold
SPTAN1 (α-fodrin) expression (repeat 2) (0.5 h, 100 μM, vs time zero): 0.49 fold
SPTBN expression (0.5 h, 100 μM, vs time zero): 0.91 fold
SSA2 (autoantigen SS-A/Ro) expression (repeat 2) (0.5 h, 100 μM, vs time zero): 0.709 fold
SSA2 expression (repeat 1) (0.5 h, 100 μM, vs time zero): 1.009 fold
SSA2 expression (repeat 3) (0.5 h, 100 μM, vs time zero): 0.505 fold
SSA2 expression (repeat 4) (0.5 h, 100 μM, vs time zero): 0.596 fold
SSB (autoantigen La) expression (repeat 1) (0.5 h, 100 μM, vs time zero): 0.838 fold
SSB (autoantigen La) expression (repeat 2) (0.5 h, 100 μM, vs time zero): 0.711 fold
SSNA1 expression (0.5 h, 100 μM, vs time zero): 1.354 fold
SSSCA1 expression (0.5 h, 100 μM, vs time zero): 1.267 fold
STRN3 expression (0.5 h, 100 μM, vs time zero): 0.425 fold
TOP1 expression (repeat 1) (0.5 h, 100 μM, vs time zero): 0.85 fold
TOP1 expression (repeat 2) (0.5 h, 100 μM, vs time zero): 0.62 fold
UBTF expression (0.5 h, 100 μM, vs time zero): 0.498 fold
XRCC5 (Ku autoantigen, 80 kDa) expression (repeat 1) (0.5 h, 100 μM, vs time zero): 2.338 fold
XRCC5 (Ku autoantigen, 80 kDa) expression (repeat 2) (0.5 h, 100 μM, vs time zero): 1.87 fold
dJ963E22.1 expression (0.5 h, 100 μM, vs time zero): 1.842 fold
α-NAC expression (0.5 h, 100 μM, vs time zero): 0.632 fold
